In ChEMBL document CHEMBL1201862, “PubChem BioAssay data set” (2004):
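1) Cells in 96-well plates. 2) Compound, 48 h, 5 concentrations. 3) Linear interpolation between surrounding doses. 4) Unreached endpoint = highest concentration. GI50 marks 50% less growth.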 Activity calls are given as the source filed them. Cut-off read from the data, not from the text of the source: active = GI50 up to about 1.1 µM and inactive = higher.

Legend:
Test in all cases: NCI anticancer screen, dose series, 48 h
[1] = tested on: NCI-H226
[2] = tested on: SR
[3] = tested on: RPMI-8226
[4] = tested on: SW-620
[5] = tested on: A549
[6] = tested on: SF-268
[7] = tested on: OVCAR-5
[8] = tested on: HCT-116
[9] = tested on: IGROV-1
[10] = tested on: U-251
[11] = tested on: HCT-15
[12] = tested on: NCI-H522
[13] = tested on: NCI-H460
[14] = tested on: CAKI-1
[15] = tested on: LOX IMVI
[16] = tested on: CCRF-CEM

SMILES	GI50 [1]	GI50 [2]	GI50 [3]	GI50 [4]	GI50 [5]	GI50 [6]	GI50 [7]	GI50 [8]	GI50 [9]	GI50 [10]	GI50 [11] [µM]	GI50 [12]	GI50 [13]	GI50 [14]	GI50 [15]	GI50 [16]
NCCCOCC(=O)O	> 100 µM (inactive)	> 100 µM (inactive)	> 100 µM (inactive)	> 100 µM (inactive)	> 100 µM (inactive)	> 100 µM (inactive)	> 100 µM (inactive)	> 100 µM (inactive)	> 100 µM (inactive)	> 100 µM (inactive)	> 100					
CC(C)(CN1CCCCC1)C(=O)CC(SCCS(=O)(=O)O)c1ccc(Br)cc1 (stereo not drawn)	3.26 µM (inactive)		1.94 µM (inactive)		1.98 µM (inactive)	2.61 µM (inactive)	2.8 µM (inactive)	1.67 µM (inactive)	1.97 µM (inactive)	1.56 µM (inactive)	2.82	1.15 µM (inactive)	2.14 µM (inactive)	2.4 µM (inactive)		
c1cnc2c(c1)-n1cccc1C1(CCCCC1)NN2	> 100 µM (inactive)	40 µM (inactive)	47.9 µM (inactive)	> 100 µM (inactive)	54 µM (inactive)	> 100 µM (inactive)	> 100 µM (inactive)	59.8 µM (inactive)			37.4	63.1 µM (inactive)	61.5 µM (inactive)	60 µM (inactive)	50 µM (inactive)	41.5 µM (inactive)
CC(=O)OC1(C(C)=O)CC2(c3ccccc3)OC1(c1ccccc1)c1ccccc12 (stereo not drawn)	5.98 µM (inactive)	6.56 µM (inactive)	3.18 µM (inactive)	16.7 µM (inactive)	25.3 µM (inactive)	52.5 µM (inactive)	> 100 µM (inactive)	7.78 µM (inactive)	4.91 µM (inactive)	18.2 µM (inactive)	6.38	4.26 µM (inactive)	10.4 µM (inactive)		16.4 µM (inactive)	
CCOC(=O)c1sc2c(sc(=O)n2-c2ccccc2)c1O	> 100 µM (inactive)	67.6 µM (inactive)			> 100 µM (inactive)	> 100 µM (inactive)	> 100 µM (inactive)	> 100 µM (inactive)	> 100 µM (inactive)	> 100 µM (inactive)	> 100	> 100 µM (inactive)	> 100 µM (inactive)	> 100 µM (inactive)	55.7 µM (inactive)	45 µM (inactive)
O=C(CCN1CCC(CCO)CC1)Nc1ccc2c(c1)C(=O)c1ccc(NC(=O)CCN3CCC(CCO)CC3)cc1C2=O	4.86 µM (inactive)	7.69 µM (inactive)	25.9 µM (inactive)	4.79 µM (inactive)	37.7 µM (inactive)	11.3 µM (inactive)	> 100 µM (inactive)	9.46 µM (inactive)	24.7 µM (inactive)	9.1 µM (inactive)	27.7	11.8 µM (inactive)	3.94 µM (inactive)	34.8 µM (inactive)	8.39 µM (inactive)	4.22 µM (inactive)
O=C1/C(=C(\Nc2ccccc2)c2ccccc2)C=NN1c1ccccc1			40.8 µM (inactive)	> 100 µM (inactive)	> 100 µM (inactive)	> 100 µM (inactive)	> 100 µM (inactive)		> 100 µM (inactive)	> 100 µM (inactive)	> 100	> 100 µM (inactive)	96.4 µM (inactive)	> 100 µM (inactive)	> 100 µM (inactive)	> 100 µM (inactive)
COC(=O)C(=O)C(C(=O)C=C(C)C)C(=O)C(=O)Nc1nc2ccc([N+](=O)[O-])cc2s1 (stereo not drawn)	46.1 µM (inactive)		28.4 µM (inactive)	> 100 µM (inactive)	78.7 µM (inactive)	39 µM (inactive)	> 100 µM (inactive)	50 µM (inactive)	24.9 µM (inactive)	49.8 µM (inactive)	50.6	23.7 µM (inactive)	72.8 µM (inactive)	29.5 µM (inactive)	56.4 µM (inactive)	38.7 µM (inactive)
CC(=O)Nc1ccc(/C=C/C(=O)c2sc(C(N)=S)nc2C)cc1	> 100 µM (inactive)		> 100 µM (inactive)	> 100 µM (inactive)	> 100 µM (inactive)	> 100 µM (inactive)	> 100 µM (inactive)		> 100 µM (inactive)	> 100 µM (inactive)	> 100	> 100 µM (inactive)	> 100 µM (inactive)	> 100 µM (inactive)	> 100 µM (inactive)	81.1 µM (inactive)
Cc1ccc(-c2cc(-c3ccco3)c(C#N)c(O)n2)cc1	> 100 µM (inactive)		> 100 µM (inactive)	> 100 µM (inactive)	> 100 µM (inactive)	> 100 µM (inactive)	> 100 µM (inactive)	> 100 µM (inactive)	> 100 µM (inactive)	82.8 µM (inactive)	> 100	> 100 µM (inactive)	> 100 µM (inactive)		> 100 µM (inactive)	> 100 µM (inactive)
Nc1c(-c2ccc(Cl)cc2Cl)[n+]([O-])c2ccccc2[n+]1[O-]	> 100 µM (inactive)		> 100 µM (inactive)	> 100 µM (inactive)	> 100 µM (inactive)	> 100 µM (inactive)	> 100 µM (inactive)		> 100 µM (inactive)	> 100 µM (inactive)	> 100	37.4 µM (inactive)	> 100 µM (inactive)	> 100 µM (inactive)	> 100 µM (inactive)	> 100 µM (inactive)
FC(F)(F)c1cccc(/C=N/C23CC4CC(CC(C4)C2)C3)c1	> 100 µM (inactive)	> 100 µM (inactive)	> 100 µM (inactive)	> 100 µM (inactive)	> 100 µM (inactive)	> 100 µM (inactive)	> 100 µM (inactive)	> 100 µM (inactive)	> 100 µM (inactive)	> 100 µM (inactive)	> 100		> 100 µM (inactive)	> 100 µM (inactive)	> 100 µM (inactive)	
O=C(O)[C@@H](NS(=O)(=O)c1ccc2ccccc2c1)c1ccccc1			> 100 µM (inactive)			> 100 µM (inactive)	> 100 µM (inactive)		> 100 µM (inactive)	> 100 µM (inactive)	> 100	> 100 µM (inactive)	> 100 µM (inactive)	> 100 µM (inactive)	> 100 µM (inactive)	> 100 µM (inactive)
O=C1/C(=C/c2ccc3c(c2)OCO3)SC2C=Nc3ccccc3N12 (stereo not drawn)	> 100 µM (inactive)			> 100 µM (inactive)	> 100 µM (inactive)	> 100 µM (inactive)	> 100 µM (inactive)	> 100 µM (inactive)	> 100 µM (inactive)	> 100 µM (inactive)	> 100	> 100 µM (inactive)	> 100 µM (inactive)	> 100 µM (inactive)	> 10 µM (inactive)	
OCC(O)COc1c(Cl)ccc(Cl)c1Cl (stereo not drawn)	> 100 µM (inactive)	> 100 µM (inactive)		> 100 µM (inactive)	> 100 µM (inactive)	> 100 µM (inactive)	> 100 µM (inactive)	> 100 µM (inactive)	> 100 µM (inactive)	> 100 µM (inactive)	> 100	> 100 µM (inactive)	> 100 µM (inactive)	> 100 µM (inactive)	> 100 µM (inactive)	> 100 µM (inactive)
C=CCNC(=O)NCCCC(NC(C)=O)C(=O)NCc1ccccc1 (stereo not drawn)	> 100 µM (inactive)		> 100 µM (inactive)	> 100 µM (inactive)	> 100 µM (inactive)	> 100 µM (inactive)	> 100 µM (inactive)		> 100 µM (inactive)	> 100 µM (inactive)	> 100	> 100 µM (inactive)	> 100 µM (inactive)	> 100 µM (inactive)	> 100 µM (inactive)	> 100 µM (inactive)
CN1CCC23c4c5ccc(O)c4OC2C(=NN=C2CCC4(O)C6Cc7ccc(O)c8c7C4(CCN6C)C2O8)CCC3(O)C1C5 (stereo not drawn)	> 100 µM (inactive)		> 100 µM (inactive)	> 100 µM (inactive)	> 100 µM (inactive)	> 100 µM (inactive)	> 100 µM (inactive)		> 100 µM (inactive)	> 100 µM (inactive)	> 100	> 100 µM (inactive)	> 100 µM (inactive)	> 100 µM (inactive)	> 100 µM (inactive)	> 100 µM (inactive)
Cc1ccc(S(=O)(=O)c2c(N)n(CCN(C)C)c3nc4ccccc4nc23)cc1	> 100 µM (inactive)		> 100 µM (inactive)		> 100 µM (inactive)	> 100 µM (inactive)	> 100 µM (inactive)	> 100 µM (inactive)	> 100 µM (inactive)	> 100 µM (inactive)	> 100	3.13 µM (inactive)	> 100 µM (inactive)			96.6 µM (inactive)
COC(=O)C(CCC#N)(CCC#N)C(=O)OC	> 100 µM (inactive)	> 100 µM (inactive)	> 100 µM (inactive)	> 100 µM (inactive)	> 100 µM (inactive)	> 100 µM (inactive)		> 100 µM (inactive)	> 100 µM (inactive)	> 100 µM (inactive)	> 100	> 100 µM (inactive)	> 100 µM (inactive)		> 100 µM (inactive)	> 100 µM (inactive)
C[C@@H]1[C@@H]2[C@@H](C=C3C4CCC5Cc6nc7c(nc6C[C@@]5(C)C4C[C@H](O)[C@]32CO)CC2CCC3C4=C[C@H]5O[C@@]6(OC(C)(CO)C[C@@H]6O)[C@H](C)[C@@]5(O)[C@]4(C)[C@@H](O)CC3[C@]2(C)C7)O[C@]12CCC(C)(C)O2 (stereo partly drawn)	0.0225 µM (active)	0.00255 µM (active)	0.00144 µM (active)	0.0225 µM (active)	0.0137 µM (active)	0.0208 µM (active)	0.488 µM (active)	0.0306 µM (active)	0.387 µM (active)	0.0053 µM (active)	0.135	0.579 µM (active)	0.0101 µM (active)	0.021 µM (active)		0.0117 µM (active)
